Reference: patent US10377746B2, “Indolin-2-one derivatives” (Hoffmann-La Roche Inc., priority 2015, dated 2019)

Assays:
[1] = target: mouse ENT-1 transporter (Mus musculus (Mouse), UniProt Q9JIM1); assay: Determination of adenosine transport activity (ENT1, [3H]-adenosine uptake); assay type: cell-based; conditions: stable cells expressing mouse ENT-1; [2,8-3H]-adenosine 6 nM, 20 min
Procedure: To measure adenosine transport activity of ENT-1 mammalian cells, stable cells expressing the mouse ENT-1 transporter were plated on day 1 in 96-well culture plates at the density of 60,000 cells/well, in complete DMEM/F12 medium supplemented with glutamax, 10% FBS and 10 μg/ml puromycin. On day 2, the medium was aspirated and the cells were washed twice with uptake buffer (10 mM Hepes-Tris, pH 7.4 containing 150 mM NaCl, 1 mM
CaCl2, 2.5 mM KCl, 2.5 mM MgSO4, 10 mM D-glucose) (UB). For inhibition experiments, cells were then incubated at RT with various concentrations of compounds with 1% DMSO final. Non-specific uptake was defined in the presence of 10 μM S-(4-Nitrobenzyl)-6-thioinosine (NBTI, Sigma Cat #N2255).
A solution containing [2,8-^3H]-adenosine 6 nM (40 Ci/mmol, American Radiolabeled chemicals Inc, Cat #ART 0287A) was then immediately added to the wells. The plates were then incubated for 20 min with gentle shaking and the reaction was stopped by aspiration of the mixture and washing (three times) with ice-cold UB. The cells were lysed by the addition of scintillation liquid, shaken 3 hours and the radioactivity in the cells was estimated using a microplates scintillation counter (TopCount NXT, Packard).

[2] = test system: L-687,414-induced hyperlocomotion; assay: L-687,414-induced hyperlocomotion; assay type: in vivo, mouse; conditions: mice; 30 mg/kg ip, 15 min before 50 mg/kg s.c. L-687,414
Procedure: The described compounds of formula I reduce L-687,414-induced hyperlocomotion. This was assessed by using a computerized Digiscan 16 Animal Activity Monitoring System (Omnitech Electronics, Columbus, Ohio) to quantify locomotor activity. Animals were kept under a 12 h light/dark cycle and experiments were performed during the light period. Each activity monitoring chamber consisted of a Plexiglas box (41×41×28 cm; W×L×H) with sawdust bedding on the floor surrounded by invisible horizontal and vertical infrared sensor beams. The test boxes were divided by a Plexiglas cross providing each mouse with 20×20 cm of moving space. Cages were connected to a Digiscan Analyzer linked to a computer that constantly collected the beam status information. Records of photocell beam interruptions for individual animals were taken every 5 min over the duration of the experimental session and the sum of the first 6 periods was used as the final parameter. At least 8 mice were used in each treatment group. Compounds were administered i.p. 15 min before a s.c. injection of 50 mg/kg of L-687,414. Mice were then transferred from their home cage to the recording chambers for a 15-min habituation phase allowing free exploration of the new environment. Horizontal activity was then recorded for a 30-min time period. The % inhibition of L-687,414-induced hyperlocomotion was calculated according to the equation: ((Veh+L-687,414horizontal activity−drug+L-687,414horizontal activity)/Veh+L-687,414horizontal activity)×100
ID50 values, defined as doses of each compound producing 50% inhibition of L-687,414-induced hyperlocomotion, were calculated by linear regression analysis of a dose-response data using an Excel-based computer-fitting program.
As data was not presupposed to be normally distributed, groups treated with test compounds were statistically compared with the control (vehicle-treated) group using one-tailed Mann Whitney U tests. […]

[3] = test system: behavioral signature of compound-treated mice; assay: SmartCube behavioral signature similarity analysis; assay type: in vivo, mouse; conditions: for SmartCube similarity to major classes of compounds: i.p., in words; for discrimination rate vs Clozapine (1.0 mg/kg) / discrimination rate vs Olanzapine (0.25 mg/kg) / discrimination rate vs Risperidone (0.06 mg/kg): rate <=0.70 = similar
From the text: In addition to the reversal of L-687,414 induced hyperlocomotion experiment as described above, some compounds of the present invention have been tested in SmartCube®, an automated system in which the behaviors of compound-treated mice in response to multiple challenges are captured by digital video and analyzed with computer algorithms (Roberds et al., Frontiers in Neuroscience, 2011, Vol. 5, Art. 103, 1-4; Vadim Alexandrov, Dani Brunner, Taleen Hanania, Emer Leahy Eur. J. Pharmacol. 2015, 750, 82-99). In this way, the neuro-pharmacological effects of a test compound can be predicted by similarity to major classes of compounds, such as antipsychotics, anxiolytics and antidepressants.
SmartCube® was used to compare the behavioral signature of a test compound to a database of behavioral signatures obtained from a large set of clinically approved reference drugs, grouped per indications. In this way, the neuro-pharmacological effects of a test compound can be predicted by similarity to major classes of compounds, such as antipsychotics, anxiolytics and antidepressants. This approach is ideally suited to screen collections of existing drugs or drug candidates with previously unknown neuropharmacology, which could expedite the development of new and unexpected treatments for psychiatric disorders.
Some compounds of the present invention were injected i.p. at different doses 15 minutes before the test. At least 8 mice were used in each treatment group. Digital videos of the subjects were processed with computer vision algorithms to extract over 2000 dependent measures including frequency and duration of many different behavioral states. The results of the classifications are presented as bar charts for each compound and dose (mg/kg), the Y-axis indicates the relative probability that the test compound will show efficacy in the specific CNS indication.
Compounds of the present invention show similar signatures to those of atypical antipsychotics. An independent analysis was performed on the unclassified data to determine the similarity of the example compounds to active doses of known atypical antipsychotics. For this analysis, we use discrimination rate as the measure of separability between the two drugs, i.e. one drug's “distinguishability” from another. A rate equal to 50% (or 0.5) corresponds to zero distinguishability. […] In most cases, the example compounds show a similarity to risperidone, clozapine and olanzapine with a discrimination rate of ≤0.70.

Chain of mouse ENT-1 transporter (Q9JIM1 whole entry): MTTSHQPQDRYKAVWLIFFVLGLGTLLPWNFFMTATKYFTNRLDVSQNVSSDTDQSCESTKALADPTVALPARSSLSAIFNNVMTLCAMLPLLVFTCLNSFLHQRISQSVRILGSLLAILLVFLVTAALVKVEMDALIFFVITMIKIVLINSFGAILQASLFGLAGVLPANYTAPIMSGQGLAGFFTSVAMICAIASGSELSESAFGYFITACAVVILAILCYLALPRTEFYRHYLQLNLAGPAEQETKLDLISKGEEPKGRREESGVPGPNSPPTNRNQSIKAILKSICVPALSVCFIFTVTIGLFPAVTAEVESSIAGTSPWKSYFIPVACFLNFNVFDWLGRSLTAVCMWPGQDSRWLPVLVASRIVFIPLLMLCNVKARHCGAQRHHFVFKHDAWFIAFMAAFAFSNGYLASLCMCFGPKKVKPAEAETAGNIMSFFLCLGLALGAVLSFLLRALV

| Compound | IC50 [1] [nM] | further results |
| --- | --- | --- |
| 3,3-Dimethyl-6-(2-methyl-1-oxidopyrimidin-1-ium-5-yl)-1-(6-methylsulfonylpyrazin-2-yl)indol-2-one [Example 15] | 218 | – |
| Cc1ncc(-c2ccc3c(c2)N(c2ccc4ccsc4c2)C(=O)C3(C)C)cn1 [Example 1, 1-(Benzo[b]thiophen-6-yl)-3,3-dimethyl-6-(2-methylpyrimidin-5-yl)indolin-2-one] | 189 | – |
| Cc1ncc(-c2ccc3c(c2)N(c2cccc4sccc24)C(=O)C3(C)C)cn1 [Example 2, 1-(Benzo[b]thiophen-4-yl)-3,3-dimethyl-6-(2-methylpyrimidin-5-yl)indolin-2-one] | 844 | – |
| Cc1ncc(-c2ccc3c(c2)N(c2cncc(S(C)(=O)=O)c2)C(=O)C3(C)C)cn1 [Example 3, 3,3-Dimethyl-6-(2-methylpyrimidin-5-yl)-1-(5-(methylsulfonyl)pyridin-3-yl)indolin-2-one] | 32.1 | Inhibition, ip of L-687,414-induced hyperlocomotion [2]: 92.8%; SmartCube similarity to major classes of compounds [3]: similarity to atypical antipsychotics; discrimination rate vs Clozapine (1.0 mg/kg) ([3]; test compound 3 mg/kg i.p.): 0.58; discrimination rate vs Olanzapine (0.25 mg/kg) ([3]; test compound 3 mg/kg i.p.): 0.60; discrimination rate vs Risperidone (0.06 mg/kg) ([3]; test compound 3 mg/kg i.p.): 0.67 |
| Cc1ncc(-c2ccc3c(c2)N(c2cncc(S(C)(=O)=O)n2)C(=O)C3(C)C)cn1 [Example 4, 3,3-Dimethyl-6-(2-methylpyrimidin-5-yl)-1-(6-(methylsulfonyl)pyrazin-2-yl)indolin-2-one] | 40.1 | – |
| Cc1ncc(-c2ccc3c(c2)N(c2cccc(S(C)(=O)=O)c2)C(=O)C3(C)C)cn1 [Example 5, 3,3-Dimethyl-6-(2-methylpyrimidin-5-yl)-1-(3-(methylsulfonyl)phenyl)indolin-2-one] | 106 | Inhibition, ip of L-687,414-induced hyperlocomotion [2]: 96%; SmartCube similarity to major classes of compounds [3]: similarity to atypical antipsychotics; discrimination rate vs Clozapine (1.0 mg/kg) ([3]; test compound 5 mg/kg i.p.): 0.55; discrimination rate vs Olanzapine (0.25 mg/kg) ([3]; test compound 5 mg/kg i.p.): 0.54; discrimination rate vs Risperidone (0.06 mg/kg) ([3]; test compound 5 mg/kg i.p.): 0.52 |
| Cc1ncc(-c2ccc3c(c2)N(c2cncc(S(=O)(=O)N(C)C)c2)C(=O)C3(C)C)cn1 [Example 6, 5-(3,3-Dimethyl-6-(2-methylpyrimidin-5-yl)-2-oxoindolin-1-yl)-N,N-dimethylpyridine-3-sulfonamide] | 44.9 | – |
| Cc1ncc(-c2ccc3c(c2)N(c2cncc(S(=O)(=O)C(C)C)c2)C(=O)C3(C)C)cn1 [Example 7, 1-(5-(Isopropylsulfonyl)pyridin-3-yl)-3,3-dimethyl-6-(2-methylpyrimidin-5-yl)indolin-2-one] | 135 | – |
| Cc1ncc(-c2ccc3c(c2)N(c2cncc(S(=O)(=O)C4CC4)c2)C(=O)C3(C)C)cn1 [Example 8, 1-(5-(Cyclopropylsulfonyl)pyridin-3-yl)-3,3-dimethyl-6-(2-methylpyrimidin-5-yl)indolin-2-one] | 40 | – |
| CSc1cncc(N2C(=O)C(C)(C)c3ccc(-c4cnc(C)nc4)cc32)c1 [Example 9, 3,3-Dimethyl-6-(2-methylpyrimidin-5-yl)-1-(5-(methylthio)pyridin-3-yl)indolin-2-one] | 218 | – |
| Cc1ncc(-c2ccc3c(c2)N(c2cncc(S(N)(=O)=O)c2)C(=O)C3(C)C)cn1 [Example 10, 5-(3,3-Dimethyl-6-(2-methylpyrimidin-5-yl)-2-oxoindolin-1-yl)pyridine-3-sulfonamide] | 128 | – |
| Cc1ncc(-c2ccc3c(c2)N(c2cncc(S(=O)(=O)N4CCC4)c2)C(=O)C3(C)C)cn1 [Example 11, 1-(5-(Azetidin-1-ylsulfonyl)pyridin-3-yl)-3,3-dimethyl-6-(2-methylpyrimidin-5-yl)indolin-2-one] | 169 | – |
| COCCN(C)S(=O)(=O)c1cncc(N2C(=O)C(C)(C)c3ccc(-c4cnc(C)nc4)cc32)c1 [Example 12, 5-(3,3-dimethyl-6-(2-methylpyrimidin-5-yl)-2-oxoindolin-1-yl)-N-(2-methoxyethyl)-N-methylpyridine-3-sulfonamide] | 79.3 | – |
| CNS(=O)(=O)c1cncc(N2C(=O)C(C)(C)c3ccc(-c4cnc(C)nc4)cc32)c1 [Example 13, 5-(3,3-Dimethyl-6-(2-methylpyrimidin-5-yl)-2-oxoindolin-1-yl)-N-methylpyridine-3-sulfonamide] | 71.7 | – |
| Cc1ncc(-c2ccc3c(c2)N(c2cnc(C4CC4)c(S(C)(=O)=O)c2)C(=O)C3(C)C)cn1 [Example 14, 1-(6-Cyclopropyl-5-(methylsulfonyl)pyridin-3-yl)-3,3-dimethyl-6-(2-methylpyrimidin-5-yl)indolin-2-one] | 38.5 | – |
| Cc1cncc(-c2ccc3c(c2)N(c2cncc(S(C)(=O)=O)c2)C(=O)C3(C)C)c1 [Example 16, 3,3-Dimethyl-6-(5-methylpyridin-3-yl)-1-(5-(methylsulfonyl)pyridin-3-yl)indolin-2-one] | 313 | – |
| Cc1ncc(-c2ccc3c(c2)N(c2cncc(S(C)(=O)=O)c2)C(=O)C3(C)C)cc1F [Example 17, 6-(5-Fluoro-6-methylpyridin-3-yl)-3,3-dimethyl-1-(5-(methylsulfonyl)pyridin-3-yl)indolin-2-one] | 27 | – |
| Cc1ncc(-c2ccc3c(c2)N(c2cnc(S(C)(=O)=O)cn2)C(=O)C3(C)C)cn1 [Example 18, 3,3-Dimethyl-6-(2-methylpyrimidin-5-yl)-1-(5-(methylsulfonyl)pyrazin-2-yl)indolin-2-one] | 27 | – |
| Cc1ncc(-c2ccc3c(c2)N(c2ccc(S(C)(=O)=O)cn2)C(=O)C3(C)C)cn1 [Example 19, 3,3-Dimethyl-6-(2-methylpyrimidin-5-yl)-1-(5-(methylsulfonyl)pyridin-2-yl)indolin-2-one] | 157 | Inhibition, ip of L-687,414-induced hyperlocomotion [2]: 93.5%; SmartCube similarity to major classes of compounds [3]: similarity to atypical antipsychotics; discrimination rate vs Clozapine (1.0 mg/kg) ([3]; test compound 5 mg/kg i.p.): 0.54; discrimination rate vs Olanzapine (0.25 mg/kg) ([3]; test compound 5 mg/kg i.p.): 0.52; discrimination rate vs Risperidone (0.06 mg/kg) ([3]; test compound 5 mg/kg i.p.): 0.50 |
| Cc1ncc(-c2ccc3c(c2)N(c2cncc(S(C)(=O)=O)c2)C(=O)C32CCC2)cn1 [Example 20, 6′-(2-Methylpyrimidin-5-yl)-1′-(5-(methylsulfonyl)pyridin-3-yl)spiro[cyclobutane-1,3′-indolin]-2′-one] | 230 | – |
